Assay results as given in US20240342186A1, “PYRIDINE DERIVATIVES WITH N-LINKED CYCLIC SUBSTITUENTS AS cGAS INHIBITORS” (Boehringer Ingelheim International GmbH, priority 2021, published 2024).
Where two headings read alike, the source gives them in different places.

How the values were obtained:
[1] = tested on: cellular cGAS activity in dsDNA-stimulated human whole blood; test: Human whole blood assay (hWB IC50): IFNα2α production after dsDNA transfection; format: cell-based
Procedure, shortened: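 Citrated blood from healthy donors preincubated 60 min at room temperature with compound (top 10 µM, ~1:5 steps, 0.1% DMSO), then transfected with dsDNA/Fugene and incubated 22 h at 37 °C. Plasma IFNα2α measured by MSD immunoassay; IC50 from 4-parameter fit of % control (stimulated vs unstimulated).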

[2] = tested on: cellular cGAS activity in baculovirus-stimulated THP1-Dual cells (IRF dependent Lucia luciferase reporter); test: Human cGAS cell assay: inhibition of IFN induction in virus-stimulated THP1 cells (THP1(vir) IC50); format: cell-based; conditions: Homo sapiens, THP1-Dual
Procedure, shortened: (§1)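 THP1-Dual cells with IRF-dependent Lucia luciferase reporter, stimulated by empty baculovirus (dsDNA delivery activating cGAS) or, for the counter assay, directly by cGAMP. 5000 cells/well, 8 concentrations from 10 μM top, 1% DMSO, 18 h at 37 °C; luminescence read, IC50 by 4-parameter logistic fit versus unstimulated low control.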

[3] = tested on: cGAMP-stimulated THP1-Dual cells (pathway directly downstream of cGAS); test: cGAMP stimulated counter cell assay: inhibition of IFN induction in cGAMP-stimulated THP1 cells (THP1(cGAMP) IC50); format: cell-based, human; conditions: for IC50: read-out: THP1(cGAMP) IC50 (converted); for Ratio THP1(cGAMP) IC50 / THP1(vir) IC50: selectivity for cGAS inhibition
Procedure, shortened: as §1

[4] = target: cGAS (Homo sapiens (Human), UniProt Q8N884); test: Human cGAS enzyme assay (hcGAS IC50, in vitro), cGAMP formation by RapidFire MS; format: biochemical;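 also: enzyme activated by 45 bp dsDNA with GTP and ATP (30 µM each), 60 min compound pre-incubation then 90 min reaction, cGAMP relative to cyclic-di-GMP internal standard, 8-point dilutions up to 10 µM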
[5] = inhibition of IFN induction in dsDNA-stimulated human whole blood
[6] = read-out: THP1(vir) IC50, virus-stimulated THP1 cells, IFN induction
[7] = Homo sapiens, THP1-Dual, inhibition of IFN induction in cGAMP-stimulated THP1 cells
[8] = biochemical (in vitro) cGAS inhibition
[9] = inhibition of IFN induction in virus-stimulated THP1 cells, read-out: THP1(vir) IC50
[10] = dsDNA-stimulated human whole blood, IFN induction
[11] = Homo sapiens, THP1-Dual, cGAMP-stimulated THP1 cells, counter assay
[12] = biochemical (in vitro), human cGAS, 45 bp dsDNA, GTP/ATP

Chain of cGAS (Q8N884 whole entry): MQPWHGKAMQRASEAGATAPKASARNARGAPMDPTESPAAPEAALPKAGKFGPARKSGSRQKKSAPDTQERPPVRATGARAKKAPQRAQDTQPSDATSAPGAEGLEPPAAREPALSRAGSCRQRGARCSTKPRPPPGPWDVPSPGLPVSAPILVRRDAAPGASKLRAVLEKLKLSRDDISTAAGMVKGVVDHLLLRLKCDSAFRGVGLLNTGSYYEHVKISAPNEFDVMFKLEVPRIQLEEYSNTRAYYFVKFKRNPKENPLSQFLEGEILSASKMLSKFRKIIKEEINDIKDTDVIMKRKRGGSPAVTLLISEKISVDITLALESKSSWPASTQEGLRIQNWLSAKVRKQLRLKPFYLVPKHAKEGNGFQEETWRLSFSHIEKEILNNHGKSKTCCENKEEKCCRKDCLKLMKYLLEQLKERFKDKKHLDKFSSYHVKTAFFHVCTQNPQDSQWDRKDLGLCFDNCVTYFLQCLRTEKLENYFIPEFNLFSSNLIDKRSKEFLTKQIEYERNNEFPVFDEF

Row | SMILES | IC50 [1, 5] | IC50 ([2]; read-out: THP1(vir) IC50, inhibition of IFN induction in virus-stimulated THP1 cells) | IC50 [2, 6] | IC50 [3, 7] | IC50 ([3]; cGAMP-stimulated THP1 cells, counter assay) | Ratio THP1(cGAMP) IC50 / THP1(vir) IC50 [3] | IC50 [4, 8] | IC50 [2, 9] | IC50 [1, 10] | IC50 ([2]; virus-stimulated THP1 cells, IFN induction, read-out: THP1(vir) IC50) | IC50 [3, 11] | IC50 [4, 12]
1 | C[C@@H]1N(c2cccnc2O[C@H]2C[C@@H](C(=O)O)N(c3nc(C(F)F)nc4c3oc3ccccc34)C2)CCOC12COC2 [Example 4.04, (2S,4S)-4-({3-[(9S)-9-methyl-2,5-dioxa-8-azaspiro[3.5]nonan-8-y]-pyridin-2-yl}-oxy)1-[4-(difluoro-methyl)-8-oxa-3,5-diazatricyclo[7.4.0.0^2.7]trideca-1(13),2,4,6,9,11-hexaen-6-yl]pyrrolidine-2-carboxylic acid] | 77 nM | 386 nM | 386 nM | > 16600 nM | > 16600 nM | >43 | 2 nM | – | – | – | – | –
2 | COc1c(-c2cnc(O[C@H]3C[C@@H](C(=O)O)N(c4nc(C(F)F)nc5c4oc4ccccc45)C3)c(N3CCOC4(COC4)[C@@H]3C)c2)ccnc1N(C)C [Example 4.02] | 42 nM | – | – | 12600 nM | – | 735 | 12 nM | 17 nM | – | – | – | –
3 | COC(=O)[C@@H]1C[C@H](Oc2ncc(-c3cccnc3OC)cc2N2CCOC3(COC3)[C@@H]2C)CN1c1nc(C(F)(F)F)nc2c1oc1ccccc12 [Example P04] | – | – | – | – | – | – | – | – | 2750 nM | 67 nM | > 16600 nM | > 9950 nM
4 | C[C@@H]1N(c2cc(-c3ccc(C#N)nc3)cnc2O[C@H]2C[C@@H](C(=O)O)N(c3nc(C(F)(F)F)nc4c3oc3ccccc34)C2)CCOC12COC2 [Example 3.23] | 70 nM | – | – | 10000 nM | – | 1029 | 8 nM | 10 nM | – | – | – | –
5 | C#Cc1cnc(O[C@H]2C[C@@H](C(=O)O)N(c3nc(C(F)(F)F)nc4c3oc3ccccc34)C2)c(N2CCOC3(COC3)[C@@H]2C)c1 [Example 1.12] | 15 nM | – | – | 11900 nM | – | 1769 | 3 nM | 7 nM | – | – | – | –
6 | CC#Cc1cnc(O[C@H]2C[C@@H](C(=O)O)N(c3nc(C(F)F)nc4c3oc3ccccc34)C2)c(N2CCOC3(COC3)[C@@H]2C)c1 [Example 6.02] | 8 nM | – | – | > 16000 nM | – | >3000 | 6 nM | < 5 nM | – | – | – | –
7 | CC#Cc1cnc(O[C@H]2C[C@@H](C(=O)O)N(c3nc(C(F)(F)F)nc4c3oc3ccccc34)C2)c(N2CCOC3(CC3)[C@@H]2C)c1 [Example 6.03] | 95 nM | – | – | 10900 nM | – | 2273 | 7 nM | 5 nM | – | – | – | –
8 | C[C@@H]1N(c2cc(-c3cccc(CN)c3)cnc2O[C@H]2C[C@@H](C(=O)O)N(c3nc(C(F)F)nc4c3oc3ccccc34)C2)CCOC12COC2 [Example 3.19] | 47 nM | – | – | > 16600 nM | – | >62 | 8 nM | 267 nM | – | – | – | –
9 | C[C@H]1COCCN1c1cc(Cl)cnc1O[C@H]1C[C@@H](C(=O)O)N(c2nc(C(F)F)nc3c2oc2ccccc23)C1 [Example 1.27] | 221 nM | – | – | > 16600 nM | – | >32 | 4 nM | 516 nM | – | – | – | –
10 | C#Cc1cnc(O[C@H]2C[C@@H](C(=O)O)N(c3nc(C(F)F)nc4c3oc3ccccc34)C2)c(N2CCCC[C@@H]2C)c1 [Example 1.19] | 667 nM | – | – | > 16600 nM | – | >24 | 4 nM | 699 nM | – | – | – | –
11 | COc1csc(-c2cnc(O[C@H]3C[C@@H](C(=O)O)N(c4nc(C(F)(F)F)nc5c4oc4ccccc45)C3)c(N3CCOC4(COC4)[C@@H]3C)c2)n1 [Example 7.02] | 13 nM | – | – | 8320 nM | – | 7533 | 14 nM | 1 nM | – | – | – | –
12 | C#Cc1cnc(O[C@H]2C[C@@H](C(=O)O)N(c3nc(C(C)(F)F)nc4c3oc3ccccc34)C2)c(N2CCOC3(COC3)[C@H]2C)c1 [Example 1.15] | 702 nM | – | – | 26200 nM | – | 79 | 75 nM | 332 nM | – | – | – | –
13 | CSc1cnc(O[C@H]2C[C@@H](C(=O)O)N(c3nc(C(F)F)nc4c3oc3ccccc34)C2)c(N2CCOC3(COC3)[C@@H]2C)c1 [Example 9.01, (2S,4S)-1-[4-(difluoromethyl)-8-oxa-3,5-diazatricyclo[7.4.0.0^2,7]trideca-1(9),2(7),3,5,10,12-hexaen-6-yl]-4-({3-[(9S)-9-methyl-2,5-dioxa-8-azaspiro[3.5]nonan-8-yl]-5-(methylsulfanyl)pyridin-2-yl}oxy)pyrrolidine-2-carboxylic acid] | 38 nM | – | – | 19800 nM | – | 1254 | 6 nM | 16 nM | – | – | – | –
14 | CNc1nccc(-c2cnc(O[C@H]3C[C@@H](C(=O)O)N(c4nc(C(F)F)nc5c4oc4ccccc45)C3)c(N3CCOC4(COC4)[C@@H]3C)c2)c1OC [Example 4.03] | 78 nM | – | – | 7870 nM | – | 40 | 8 nM | 199 nM | – | – | – | –
15 | C#Cc1cnc(O[C@H]2C[C@@H](C(=O)O)N(c3nc(C(F)(F)F)nc4c3oc3ccccc34)C2)c(N2CCOC[C@@H]2C)c1 [Example 1.30] | 80 nM | – | – | 22100 nM | – | 139 | 3 nM | 159 nM | – | – | – | –
16 | C[C@@H]1N(c2cc(Cl)cnc2O[C@H]2C[C@@H](C(=O)O)N(c3nc(C(F)F)nc4c3oc3ccccc34)C2)CCOC12COC2 [Example 1.09] | 19 nM | – | – | 22100 nM | – | 1169 | 2 nM | 19 nM | – | – | – | –
17 | C[C@@H]1N(c2cc(Br)cnc2O[C@H]2C[C@@H](C(=O)O)N(c3nc(C(F)(F)F)nc4c3oc3ccccc34)C2)CCOC12CC2 [Example 1.33] | 252 nM | – | – | > 10000 nM | – | 677 | 3 nM | 15 nM | – | – | – | –
18 | C[C@H]1CN(C#N)CCN1c1cc(Br)cnc1O[C@H]1C[C@@H](C(=O)O)N(c2nc(C(F)F)nc3c2oc2ccccc23)C1 [Example 1.18] | 226 nM | – | – | 6510 nM | – | 27 | 4 nM | 239 nM | – | – | – | –
19 | CC1(C#N)CN(c2cc(Cl)cnc2O[C@H]2C[C@@H](C(=O)O)N(c3nc(C(F)F)nc4c3oc3ccccc34)C2)CCO1 (some centres unmarked) [Example 1.02] | 3440 nM | – | – | 21900 nM | – | 31 | 4 nM | 697 nM | – | – | – | –
20 | CNCc1cccc(-c2cnc(O[C@H]3C[C@@H](C(=O)O)N(c4nc(C(F)(F)F)nc5c4oc4ccccc45)C3)c(N3CCOC4(COC4)[C@@H]3C)c2)c1 [Example 3.22] | 70 nM | – | – | 8910 nM | – | 50 | 16 nM | 177 nM | – | – | – | –
21 | C[C@@H]1N(c2cc(Cl)cnc2O[C@H]2C[C@@H](C(=O)O)N(c3nc(C(F)F)nc4c3oc3ccccc34)C2)CCCC12COC2 [Example 1.21] | 46 nM | – | – | 14800 nM | – | 175 | 4 nM | 85 nM | – | – | – | –
22 | C#Cc1cnc(O[C@H]2C[C@@H](C(=O)OC)N(c3nc(C(F)(F)F)nc4c3oc3ccccc34)C2)c(N2CCOC3(COC3)[C@@H]2C)c1 [Example P03] | – | – | 188 nM | – | – | – | – | – | 1090 nM | – | 22800 nM | 9620 nM
